From patent US5047397A, “Linear analogs of atrial natriuretic peptides” (California Biotechnology Inc., priority 1988, dated 1991)
“Also recorded” adds a separate entry of the source. Where a SMILES comes first, the peptide text is derived from it. Bridges are numbered along the chain shown (N, C = ends). Where no end group is shown, it is not given here.

Assays:
anesthetized rats [1] = experiment: Diuresis in anesthetized rats; type: in vivo, rat; settings: for urine flow rate (urine volume), diuretic response: infused at 5 mcg/min via femoral vein, versus baseline, FIG. 3
Protocol: In one set of examples, cannulae were placed in the left and right ureters and femoral vein of anesthetized rats and urine was collected from the ureters. Analog peptides were administered via the femoral vein. Prior to infusing the analog peptides, saline was infused for 30 minutes, urine was collected for 6 five-minute baseline periods and urine volume was determined gravimetrically. Following these baseline collection periods, various analog peptides were infused for 30 or 60 minutes and urine volume was measured in five-minute periods during infusion and for 60 minutes following infusion (at which time rats were returned to saline). Data was examined by averaging urine flow rates for six five-minute baseline control periods immediately preceding infusion, and comparing values during and after administration of peptides with the "baseline" control values. Responses to peptides are thus evaluated and plotted as the percent of baseline control responses. Specific examples are shown in FIGS. 3A-H. The error bars at the beginning of the graphs represent baseline values +standard deviations. Responses to peptides that are substantially above baseline ±SD can thus be interpreted as being statistically significant increases.

[2] = biological target: T1, specific ANP receptor sites on BASM or BAE cells (Bos taurus, UniProt P10730); experiment: Competitive displacement receptor binding of (125I)-rANP(126-150) on cultured cells; parameters: species or system bovine; settings: for Ki: Table 2A, unit not given, in nM
T1 construct: specific receptor sites on BASM or BAE cells; endogenous in cells; host or cells: cultured BASM and BAE cells
T1 sequence (P10730 42-537): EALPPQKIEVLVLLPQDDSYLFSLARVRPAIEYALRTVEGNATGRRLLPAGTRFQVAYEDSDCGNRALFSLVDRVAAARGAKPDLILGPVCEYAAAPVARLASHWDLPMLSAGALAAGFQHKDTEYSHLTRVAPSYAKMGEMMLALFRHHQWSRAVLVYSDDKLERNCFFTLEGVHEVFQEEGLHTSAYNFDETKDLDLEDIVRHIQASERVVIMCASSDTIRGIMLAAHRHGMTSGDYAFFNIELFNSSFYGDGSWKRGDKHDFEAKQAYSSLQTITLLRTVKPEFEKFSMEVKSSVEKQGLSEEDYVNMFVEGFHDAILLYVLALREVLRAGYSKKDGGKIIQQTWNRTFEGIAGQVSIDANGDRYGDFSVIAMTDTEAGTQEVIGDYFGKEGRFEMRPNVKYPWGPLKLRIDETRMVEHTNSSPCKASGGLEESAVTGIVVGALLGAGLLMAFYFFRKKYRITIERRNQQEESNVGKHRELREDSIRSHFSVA
Text: Analogous "competitive displacement" receptor binding assays are considered commonplace in the art for examining specific ligand-receptor interactions.
Assuming these ANP analogs act at one or more ANP receptor sites, then increased receptor affinity should reflect increased biological potency.

anesthetized rats [3] = experiment: Blood pressure responses in anesthetized rats; type: in vivo, rat; settings: infusion 733 p mol/kg/min
[4] = tested on: cortical-associated receptor sites of the kidney; experiment: Competition for specific (125I)-rANP(123-150) binding in the kidney; parameters: species or system rat; settings: competitor 10^-7 M, tracer 4 × 10^-12 M, n=3
[5] = tested on: isolated perfused rat kidney; experiment: Natriuresis and diuresis in the isolated perfused rat kidney; settings: for FENa (fractional sodium excretion) / FF (filtration fraction) / GFR (glomerular filtration rate) / RVR (renal vascular resistance) / UNa V (urinary sodium excretion rate) / V (urine flow rate): N=4
Text: The results are in Table 2C.

[6] = tested on: pentobarbital-anesthetized dogs; experiment: Diuresis and natriuresis in anesthetized dogs; type: in vivo, dog
Protocol: In these examples, cannulae were placed in the left and right ureters and femoral vein of anesthetized dogs and urine was collected from the ureters. Analog peptides were administered via the femoral vein. Prior to infusing analog peptides, saline was infused for 30 minutes and urine was then collected for three ten-minute collection periods. Urine volume was determined gravimetrically and urine sodium was determined photometrically.
Following these three baseline collection periods, the selected analog peptides were infused for 60 minutes and urinary flow was measured for an additional 60 minutes following infusion. During infusion (60 minutes) and recovery (60 minutes), ten-minute collection periods were obtained. Control animals which received only saline were studied in parallel.
Data were examined by comparing urine flow rates for dogs infused with peptides AP101 (3 mcg/kg/min), AP306 (3 mcg/kg/min), AP324 (3 mcg/kg/min),or AP314 (1 mcg/kg/min) against control animals infused with saline.

[7] = [C] period of section D: AP57 10^-7 M present, before rANP(123-150)

`CC[C@H](C)[C@@H]1NC(=O)[C@H](CCCNC(=N)N)NC(=O)[C@H](CC(=O)O)NC(=O)[C@H]([C@@H](C)CC)NC(=O)[C@H](CCCNC(=N)N)NC(=O)CNC(=O)CNC(=O)[C@H](Cc2ccccc2)NC(=O)[C@@H](NC(=O)[C@H](CO)NC(=O)[C@H](CO)NC(=O)[C@@H](N)CCCNC(=N)N)CSSC[C@@H](C(=O)N[C@@H](CC(N)=O)C(=O)N[C@@H](CO)C(=O)N[C@@H](Cc2ccccc2)C(=O)N[C@@H](CCCNC(=N)N)C(=O)N[C@@H](Cc2ccc(O)cc2)C(=O)O)NC(=O)[C@H](C)NC(=O)CNC1=O` [AP20, R--S--S--C--F--G--G--R--I--D--R--I--G--A--C--N--S--F--R--Y] (H-RSSCFGGRIDRIGACNSFRY-OH; disulfide 4-15) was tested, and the “urine flow rate (urine volume), diuretic response” value (anesthetized rats [1]) was “significantly increased”, the Ki [2] was 7.50 and the “Blood Pressure” value (anesthetized rats [3]) was -34 ± 3.

In the case of `CC[C@H](C)[C@@H]1NC(=O)[C@H](CCCNC(=N)N)NC(=O)[C@H](CC(=O)O)NC(=O)[C@H]([C@@H](C)CC)NC(=O)[C@H](CCCNC(=N)N)NC(=O)CNC(=O)CNC(=O)[C@H](Cc2ccccc2)NC(=O)[C@@H](NC(=O)[C@H](CO)NC(=O)[C@H](CO)NC(=O)[C@@H](N)CCCNC(=N)N)CSSC[C@@H](C(N)=O)NC(=O)[C@H](C)NC(=O)CNC1=O` [AP57, R-S-S-C-F-G-G-R-I-D-R-I-G-A-C-NH2] (H-RSSCFGGRIDRIGAC-NH2; disulfide 4-15), the “in vivo diuretic/natriuretic activity in rats, in words” value (anesthetized rats [1]; dose not stated) is reported as “natriuretic and diuretic activities”, the “RATIO OF BOUND/FREE (125I)-rANP(123-150), Whole Kidney” value ([4]; tracer alone 122 ± 46) is reported as 1.27 ± 0.32 and the “RATIO OF BOUND/FREE (125I)-rANP(123-150), Outer Cortex” value ([4]; tracer alone 176 ± 23) is reported as 1.68 ± 0.44. For the same compound, the Ki [2] was 8.2, the “natriuretic/diuretic activity in the isolated perfused rat kidney, in words” value ([5]; 10^-7 M) was “not active” and the “FENa (fractional sodium excretion)” value ([5]; AP57 10^-7 M alone, mean ± SE) was 0.24 ± 0.08%. The “FF (filtration fraction)” value ([5]; AP57 10^-7 M alone, mean ± SE) was 1.37 ± 0.22%, the “GFR (glomerular filtration rate)” value ([5]; AP57 10^-7 M alone, mean ± SE) was 0.55 ± 0.07 mL/min and the “RVR (renal vascular resistance)” value ([5]; AP57 10^-7 M alone, mean ± SE) was 2.27 ± 0.17 mmHg/ml/min. The “UNa V (urinary sodium excretion rate)” value ([5]; AP57 10^-7 M alone, mean ± SE) was 0.17 ± 0.04 uEq/min, the “V (urine flow rate)” value ([5]; AP57 10^-7 M alone, mean ± SE) was 13.8 ± 2.0 µL/min and the “FENa (fractional sodium excretion)” value [5, 7] was 0.18 ± 0.04%. The “FF (filtration fraction)” value [5, 7] was 1.57 ± 0.27%, the “GFR (glomerular filtration rate)” value [5, 7] was 0.65 ± 0.06 mL/min and the “RVR (renal vascular resistance)” value [5, 7] was 2.21 ± 0.21 mmHg/ml/min. For the same compound, the “UNa V (urinary sodium excretion rate)” value [5, 7] was 0.17 ± 0.05 uEq/min, the “V (urine flow rate)” value [5, 7] was 16.3 ± 2.0 µL/min and the “modulation of renal responses to rANP(123-150), in words” value ([5]; pretreatment of the isolated kidney with 10^-7 M AP57) was “increased the potency of rANP(123-150)”.

For “AFGGRIDRIGA-NH2 [AP101, A--F--G--G--R--I--D--R--I--G--A--NH2]”, the “Peak Urine Flow Rate V” value ([6]; 3 mcg/kg/min infused 60 min, *P<0.05, control 0.61) was 1.77 mL/min, the “urine flow rate and urinary sodium excretion (diuresis, natriuresis), in words” value ([6]; 3 mcg/kg/minute infusion) was “cause diuresis; also recorded: significantly increased” and the “urine flow rate (urine volume), diuretic response” value (anesthetized rats [1]) was “induce diuresis; also recorded: significantly increased”. The “Ki(app)” value ([2]; concentration of unlabeled peptide displacing 50% of maximal binding of 0.5 nM (125I)-rANP(126-150), BASM or BAE cells) was 2.63 nM and the “prevention of (125I)-rANP(126-150) binding to BASM cell-associated receptors (FIG. 2)” value ([2]; increasing concentrations of unlabeled peptide, BASM cells) was “effectively prevent”.
